Consider 10 compounds from article PMC3022637, “The modulation of TRPM7 currents by nafamostat mesilate depends directly upon extracellular concentrations of divalent cations” (Molecular Brain, 2010).

In experiment [1] the target is T1, TRPM7 current in cultured mouse hippocampal neurons (Mus musculus, UniProt Q923J1).
T1 construct: supports the substantial involvement of endogenous TRPM7 channels in the responses of neurons; endogenous in cells; host or cells: primary cultured hippocampal neurons from embryonic Swiss mice
The experiment is described as follows: Whole-cell voltage clamp of TRPM7 currents in cultured hippocampal neurons (low divalent cation-induced or compound-activated). The experiment is classed as cell-based. Conditions: for direct activation of TRPM7 current at physiological divalent cations: 2 mM Ca2+ and 1 mM Mg2+.

The next experiment has as its system human TRPM7 channels. More on the design: method as in PMID 18719395. Particulars: pH 7.4 to 4.0; cited from earlier work.
[2] abbreviates: 1 mM (p-GBA up to 1 mM), low divalent-evoked current.
[3] abbreviates: 200 μM, current evoked by 0.1 mM Ca2+ and 0.1 mM Mg2+.

Broadly, the Hill coefficient is the slope factor of the fitted curve. By IC50 is commonly meant the concentration that gives 50% inhibition. The term inhibition denotes how much of the control response was suppressed.

T1 sequence (Q923J1 whole entry): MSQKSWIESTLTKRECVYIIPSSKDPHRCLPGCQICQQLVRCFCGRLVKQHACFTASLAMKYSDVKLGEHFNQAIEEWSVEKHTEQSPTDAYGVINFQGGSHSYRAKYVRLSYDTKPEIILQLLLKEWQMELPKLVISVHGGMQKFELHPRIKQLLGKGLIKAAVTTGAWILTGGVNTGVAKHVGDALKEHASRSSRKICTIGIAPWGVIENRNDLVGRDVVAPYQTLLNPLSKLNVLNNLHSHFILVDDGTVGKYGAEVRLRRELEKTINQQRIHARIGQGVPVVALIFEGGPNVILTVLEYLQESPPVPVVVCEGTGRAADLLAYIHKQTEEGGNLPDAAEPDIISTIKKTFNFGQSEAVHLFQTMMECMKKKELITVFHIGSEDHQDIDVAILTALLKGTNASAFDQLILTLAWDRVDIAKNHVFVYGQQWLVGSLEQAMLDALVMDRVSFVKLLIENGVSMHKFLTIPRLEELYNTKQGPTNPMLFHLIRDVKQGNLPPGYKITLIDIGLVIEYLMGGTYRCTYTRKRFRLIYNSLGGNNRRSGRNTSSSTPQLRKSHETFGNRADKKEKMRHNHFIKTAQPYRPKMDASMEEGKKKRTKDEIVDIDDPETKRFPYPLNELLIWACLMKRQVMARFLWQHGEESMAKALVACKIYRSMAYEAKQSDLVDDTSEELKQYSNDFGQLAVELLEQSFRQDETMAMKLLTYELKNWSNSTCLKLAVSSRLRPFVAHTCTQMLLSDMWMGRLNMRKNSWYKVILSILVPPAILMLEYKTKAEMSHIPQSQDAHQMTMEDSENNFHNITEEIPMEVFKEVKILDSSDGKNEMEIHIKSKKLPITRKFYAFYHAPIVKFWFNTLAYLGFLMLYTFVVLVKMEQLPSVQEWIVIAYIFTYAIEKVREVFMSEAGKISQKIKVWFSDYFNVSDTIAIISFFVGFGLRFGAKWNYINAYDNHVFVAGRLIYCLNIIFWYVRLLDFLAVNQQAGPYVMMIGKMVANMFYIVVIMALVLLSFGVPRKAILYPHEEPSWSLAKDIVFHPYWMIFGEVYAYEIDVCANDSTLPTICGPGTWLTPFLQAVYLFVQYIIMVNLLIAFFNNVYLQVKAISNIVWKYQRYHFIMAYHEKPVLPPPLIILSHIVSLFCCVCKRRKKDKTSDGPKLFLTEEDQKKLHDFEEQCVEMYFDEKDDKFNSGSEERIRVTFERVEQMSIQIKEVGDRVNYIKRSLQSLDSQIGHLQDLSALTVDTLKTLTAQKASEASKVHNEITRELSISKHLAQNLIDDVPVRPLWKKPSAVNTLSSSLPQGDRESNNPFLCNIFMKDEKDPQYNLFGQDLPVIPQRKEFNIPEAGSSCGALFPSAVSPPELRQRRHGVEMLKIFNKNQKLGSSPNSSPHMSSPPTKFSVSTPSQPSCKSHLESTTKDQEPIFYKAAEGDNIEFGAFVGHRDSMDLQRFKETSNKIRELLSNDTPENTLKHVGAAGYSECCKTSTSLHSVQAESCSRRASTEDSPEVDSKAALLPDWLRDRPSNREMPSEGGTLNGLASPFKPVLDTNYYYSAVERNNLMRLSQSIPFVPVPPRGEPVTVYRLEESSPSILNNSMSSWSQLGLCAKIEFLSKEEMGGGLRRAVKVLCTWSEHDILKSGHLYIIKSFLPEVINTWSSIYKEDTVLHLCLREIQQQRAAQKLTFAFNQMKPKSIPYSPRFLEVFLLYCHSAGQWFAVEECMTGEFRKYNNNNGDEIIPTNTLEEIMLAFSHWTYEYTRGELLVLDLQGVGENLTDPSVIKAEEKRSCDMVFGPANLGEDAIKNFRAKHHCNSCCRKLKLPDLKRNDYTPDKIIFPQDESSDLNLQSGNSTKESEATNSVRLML

As to `N=C(N)c1ccc2cc(O)ccc2c1` [AN, 6-amidino-2-naphthol], in experiment [1] (200 μM, normalized current), the “I compound / I control, pre-applied” value came out at 85 ± 5%. Besides, the “block of TRPM7 current, co-applied” value in experiment [1] (setting [2]) is listed as “only partially inhibited”. Further, the “I compound / I control, co-applied” value in experiment [1] (1 mM, normalized current) was 69 ± 29%. Also, the “potentiation of TRPM7 current, pre-applied” value in experiment [1] (concentration not given) is given as “no potentiation”.

In the case of `[Ca+2]` [Ca^2+], in the experiment on human TRPM7 channels, the “reduction of IC50 for monovalent cation block on decreasing pH from 7.4 to 4.0” value is 410 fold.

As for `N=C(N)c1ccc(-c2cc3ccc(C(=N)N)cc3[nH]2)cc1` [DAPI], the “direct activation of TRPM7 current at physiological divalent cations” value in experiment [1] (25 μM) is given as “without effect”; in experiment [1] (100 μM) it was “strong effect”. Also, the “block of TRPM7 current” value in experiment [1] (250 μM, current evoked by 0.1 mM Ca2+ and 0.1 mM Mg2+) is “completely and reversibly blocked”. The Hill coefficient in experiment [1] (current evoked by 0.1 mM Ca2+ and 0.1 mM Mg2+) is listed as 1.8. The IC50 in experiment [1] (current evoked by 0.1 mM Ca2+ and 0.1 mM Mg2+, -60 mV, acutely applied, read-out: IC50, block of TRPM7 current) is 38 µM.

With `CCOC(=O)c1ccc(OC(=O)CCCCCNC(=N)N)cc1` [Gabexate, gabexate], the “potentiation of TRPM7 current, pre-exposed” value (“potentiation … pre-exposed” for short) in experiment [1] (200 μM) was “failed to potentiate”. Further, the inhibition at 200 µM in experiment [1] (200 μM, read-out: inhibition of TRPM7 current, co-applied) is 45 ± 3%.

Turning to `[Gd+3]` [Gd^3+], the “inhibition of TRPM7 current activated by NM” value in experiment [1] (10 μM) amounted to 97 ± 2%.

In the case of `CC(=O)N[C@@H](CC(C)C)C(=O)N[C@@H](CC(C)C)C(=O)N[C@H](C=O)CCCNC(=N)N` [Leupeptin, leupeptin], the “potentiation … pre-exposed” value in experiment [1] (200 μM) is “no inhibitory or potentiating effects”. Further, in experiment [1] (setting [3]), the “block of TRPM7 current, co-applied” value was “no inhibitory or potentiating effects”.

As for `[Mg+2]` [Mg^2+], the “reduction of IC50 for monovalent cation block on decreasing pH from 7.4 to 4.0” value in the experiment with human TRPM7 channels was 510 fold.

With `Cn1cc(NC(=O)c2cc(NC(=O)CN=C(N)N)cn2C)cc1C(=O)NCCC(=N)N` [netropsin], the “potentiation … pre-exposed” value in experiment [1] (200 μM) is given as “nor potentiated”. Further, the “block of TRPM7 current, co-applied” value in experiment [1] (setting [3]) is given as “neither blocked”.

As to `N=C(N)Nc1ccc(C(=O)O)cc1` [p-GBA, p-guanidinobenzoic acid], the “block of TRPM7 current, co-applied” value in experiment [1] (setting [2]) is “neither inhibited”. For the same compound, in experiment [1] (1 mM, normalized current), the “I compound / I control, co-applied” value came to 94 ± 3% and the “I compound / I control, pre-exposed” value was 96 ± 1%. Further, the “potentiation … pre-exposed” value in experiment [1] (up to 1 mM) is given as “nor potentiated”.

With `N=C(N)NCCCCCCCCCCNC(=N)N` [synthalin], in experiment [1] (200 μM), the “potentiation … pre-exposed” value is given as “did not block or potentiate”. Further, the “block of TRPM7 current, co-applied” value in experiment [1] (setting [3]) is given as “did not block or potentiate”.
